# Assay results taken from patent US20130158070A1, “CONJUGATES OF POLYUNSATURATED FATTY ACIDS AND AMINE-CONTAINING COMPOUNDS AND USES THEREOF” (priority 2010, published 2013).
# Experiments:
# [1] = Pharmacokinetic profile after oral administration in rats; format: in vivo, Sprague-Dawley male rats
# Method: Evaluation of the pharmacokinetic profile of MWL001 after oral administration in rats was performed.
# Sprague-Dawley male rats weighing 300-325 g were used to evaluate the oral absorption of MWL001 and its blood levels. They were deprived of food overnight and given free access to water. A dose of 10 mg/kg MWL-001 (3.3 mg/rat) was dispersed in 2.5 mL DDW and delivered to the rats by oral gavage. Blood samples (300 μl) from the rats' tails were collected in heparin containing tubes at 0, 0.5, 1, 1.5, 2, 3, 4, 6, 8, 12 and 24 h. The samples were immediately centrifuged at 10,000 rpm for 5 min, after which 150 μl of plasma samples were transferred to new tubes and stored at −80° C. until analyzed by LCMS/MS.
# The assay was based on protein precipitation of MWL001 and DHA (as an MWL001 metabolite) using methanol (100 μL plasma sample mixed with […] of methanol. The separation was carried out under reverse-phase conditions employing a Phenomenex Synergi, column (MAX-RP, 50×2 mm, 2.5 μm, 100A (in gradient mode. The mobile phase A was methanol/water/formic acid 20/80/0.2 and the mobile phase B was methanol/water/formic acid 80/20/0.2. The flow rate was maintained at 0.3 mL/min, and the column was maintained at 40° C. HPLC-MS/MS analysis was performed with a Shimadzu LC-20 HPLC system coupled with a Sciex Qtrap 3200 Turbo Ion Spray detector in positive ionization mode. The tested samples were quantified against a calibration curve in the range of 5-50 ng/mL.
# rat QT and QTc intervals = test: Cardio toxicity: QT prolongation, ECG in anesthetized rats; format: in vivo
# From the text: The QT interval (time from beginning of the QRS complex and to the end of the T wave) of the ECG is a measure of the duration of ventricular depolarization and repolarization. When ventricular repolarization is delayed and the QT interval is prolonged, there is an increased risk of ventricular tachyarrhythmia, including torsade de points (potentially fatal polymorphic ventricular tachycardia). As the QT interval has an inverse relationship to heart rate, the measured QT intervals are generally corrected for heart rate in order to determine whether they are prolonged relative to the baseline.
# The initial evaluation of cardiac safety by ECG measurements focuses on QTc duration of MWL001 50 mg/ml concentration.
# Male Sprague-Dawley rats (280-300 g of weight) were used for electrocardiographic measurements at basal conditions as well as medicated with QND and MWL. […] Electrocardiograms were recorded using disk electrodes fitted subcutaneously near the right and left axial regions and at the xiphoid cartilage and secured by surgical clips for standard Lead II recording. […] All of the data was recorded (AdInstruments PowerLab 16/30, Australia) for off line analysis.
# Heart rate (RR interval), QT interval and QTc (corrected QT interval) were calculated by ECG analysis module in the LabChart 7.2.1 software and manually screened by trained technicians. […]
# [2] = test system: collagen induced arthritis; test: Collagen induced arthritis (CIA), PGE2 production and TNFα levels; format: in vivo, black/57 mice; details: 250 mg/(kg/day) orally, 21 days, compared to Ibuprofen 500 mg/(kg/day)
# Method: Male black/57 mice, age 8-10 weeks, were used in in vivo study of PGE2 production and TNFα levels in collagen induced arthritis (CIA) model.
# Bovine CII (type II collagen CII, Sigma, St. Louis, Mo., USA) was dissolved in 0.1 M acetic acid overnight at 4° C. and was thereafter emulsified in an equal volume of complete Freund's adjuvant (Sigma). The mice were immunized intradermally at the base of the tail with 100 μl of emulsion containing 100 μg of CII. On day 21, mice were boosted intraperitoneally with 100 μg CII dissolved in phosphate buffered saline (PBS).
# The tested conjugate or Ibuprofen (Sigma, Israel) were dissolved in 80% Cremophor EL:saline 80%:20%, respectively.
# Mice were randomly selected and assigned to one of the following groups: tested conjugate (250 mg/(kg/day); n=4), Iboprofen (500 mg/ (kg/day); n=4) or vehicle (n=4). The tested conjugate and Ibuprofen were administered orally. Treatment was given daily for a period of 21 days.
# Joint tissues were prepared as previously described for measuring the production of PGE2 and cytokines. […] PGE2 concentration was measured with a commercial radio immunoassay (RIA) kit (Amersham, UK) according to the manufacturer's instructions. […] Results were expressed as pg/ml of serum or supernatant from joint homogenate.
# [3] = male, Sprague-Dawley, rat, 10 mg/kg oral gavage, plasma
structure (smiles),measurement,setting,value
CCC=CCC=CCC=CCC=CCC=CCC=CCCC(=O)N1CC(O)CC1C(=O)O (stereo not drawn) [MWL001],Cl (Clearence),"[1]; 10 mg/kg oral gavage, plasma",1512.7 ± 189.1 mL/h/kg
same,V (Volume of distribution),"[1]; 10 mg/kg oral gavage, plasma",11283.0 ± 3583.1
same,oral absorption / bioavailability,"[1]; 10 mg/kg oral, FIG. 9",high bioavailability
same,AUC,[1]; [3],6690 ± 838 ng·h/mL
same,Cmax,[1]; [3],1040 ± 77.5 ng/mL
same,Tmax,[1]; [3],2.3 ± 0.5 h
same,half-life,"[1]; male, Sprague-Dawley, rat, 10 mg/kg oral gavage, plasma, read-out: T½ (converted)",294 ± 36 min
same,metabolism (major metabolite),"[1]; oral, plasma, FIG. 9",undergoes decomposition to DHA
same,cardiotoxic effect,"rat QT and QTc intervals; high doses, short term of 2-3 hr, compared to Quinidine",no cardiotoxic effect
same,prolongation of the QTc interval,"rat QT and QTc intervals; i.v. 50-166 mg/kg, two hr period after injection",did not result in prolongation
same,Prostaglandin E2 levels in the joints,[2],significant decrease
same,TNF-α levels,[2],significant decrease
